According to the supplement of paper PMC10307832:

Columns and labels:
Experiment in all cases: relative viability (nuclei count vs DMSO), 5 days (fraction); higher = more cells survive
Entinostat + Vorinostat = compound: Nc1ccccc1NC(=O)c1ccc(CNC(=O)OCc2cccnc2)cc1 [Entinostat] + O=C(CCCCCCC(=O)Nc1ccccc1)NO [Vorinostat] (partner 1 µM)
In short: (§1)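 The day after seeding in 1536-well plates, lung cancer cell lines were treated by pin tool with a single drug, or with a fixed anchor-drug dose together with five library-drug doses (not always all listed) in √10 steps. After 5 days, a combined fix-and-stain solution (final 0.05% Triton X-100, 1% formaldehyde, 1 ug/ml Hoechst) was added. Nuclei counted on 4× images gave relative viability as treated counts over vehicle counts, reported as the median of duplicate plates.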

SGI-1776 + Decitabine = compound: CN1CCC(CNc2ccc3ncc(-c4cccc(OC(F)(F)F)c4)n3n2)CC1 [SGI-1776] + Nc1ncn([C@H]2C[C@H](O)[C@@H](CO)O2)c(=O)n1 [Decitabine] (partner 2 µM)
In short: as §1

Entinostat + Palbociclib = compound: Nc1ccccc1NC(=O)c1ccc(CNC(=O)OCc2cccnc2)cc1 [Entinostat] + CC(=O)c1c(C)c2cnc(Nc3ccc(N4CCNCC4)cn3)nc2n(C2CCCC2)c1=O [Palbociclib] (partner 0.5 µM)
In short: as §1

SGI-1776 + Alpelisib = compound: CN1CCC(CNc2ccc3ncc(-c4cccc(OC(F)(F)F)c4)n3n2)CC1 [SGI-1776] + Cc1nc(NC(=O)N2CCC[C@H]2C(N)=O)sc1-c1ccnc(C(C)(C)C(F)(F)F)c1 [Alpelisib] (partner 2 µM)
In short: as §1

Row | Cell Line | relative viability (Entinostat + Vorinostat; first compound 0.02 µM) | relative viability (Entinostat + Vorinostat; first compound 0.06325 µM) | relative viability (Entinostat + Vorinostat; first compound 0.2 µM) | relative viability (Entinostat + Vorinostat; first compound 0.6325 µM) | relative viability (Entinostat + Vorinostat; first compound 2 µM) | relative viability (SGI-1776 + Decitabine; first compound 0.08 µM) | relative viability (SGI-1776 + Decitabine; first compound 0.8 µM) | relative viability (SGI-1776 + Decitabine; first compound 2.53 µM) | relative viability (SGI-1776 + Decitabine; first compound 8 µM) | relative viability (Entinostat + Palbociclib; first compound 0.02 µM) | relative viability (Entinostat + Palbociclib; first compound 0.06325 µM) | relative viability (Entinostat + Palbociclib; first compound 0.2 µM) | relative viability (Entinostat + Palbociclib; first compound 0.6325 µM) | relative viability (Entinostat + Palbociclib; first compound 2 µM) | relative viability (SGI-1776 + Alpelisib; first compound 0.08 µM) | relative viability (SGI-1776 + Alpelisib; first compound 0.8 µM) | relative viability (SGI-1776 + Alpelisib; first compound 2.53 µM) | relative viability (SGI-1776 + Alpelisib; first compound 8 µM)
1 | HCC-366 | 0.338 | 0.239 | 0.209 | 0.0651 | 0.0386 | 0.335 | 0.382 | 0.373 | 0.316 | 0.344 | 0.348 | 0.133 | 0.111 | 0.0439 | 0.51 | 0.335 | 0.372 | 0.189
2 | SW 1573 | 0.698 | 0.891 | 0.88 | 0.422 | 0.43 | 0.598 | 0.459 | 0.483 | 0.299 | 0.322 | 0.486 | 0.434 | 0.428 | 0.311 | 0.666 | 0.763 | 0.906 | 0.581
3 | HCC-44 | 1.08 | 0.976 | 0.938 | 0.879 | 0.653 | 0.964 | 0.938 | 0.941 | 0.921 | 1.01 | 0.833 | 0.903 | 0.84 | 0.826 | 0.88 | 0.876 | 0.733 | 0.571
4 | A-427 | 0.87 | 0.875 | 0.864 | 0.781 | 0.617 | 0.601 | 0.587 | 0.539 | 0.521 | 0.555 | 0.537 | 0.463 | 0.401 | 0.368 | 1.16 | 1.14 | 1.12 | 1.02
5 | NCI-H441 | 0.695 | 0.61 | 0.465 | 0.261 | 0.161 | 0.26 | 0.26 | 0.236 | 0.22 | 0.218 | 0.231 | 0.238 | 0.171 | 0.129 | 0.751 | 0.478 | 0.697 | 0.588
6 | ABC-1 | 1.34 | 1.35 | 0.854 | 0.759 | 0.511 | 1.08 | 1.09 | 0.909 | 0.954 | 0.591 | 0.788 | 0.61 | 0.658 | 0.41 | 1.12 | 0.977 | 1.06 | 0.948
7 | LK-2 | 0.237 | 0.293 | 0.279 | 0.188 | 0.154 | 0.323 | 0.356 | 0.3 | 0.286 | 0.77 | 0.673 | 0.651 | 0.496 | 0.211 | 0.93 | 1.06 | 0.829 | 0.793
8 | NCI-H2085 | 0.731 | 0.763 | 0.788 | 0.608 | 0.419 | 0.549 | 0.505 | 0.606 | 0.556 | 0.438 | 0.441 | 0.43 | 0.4 | 0.421 | 1.01 | 0.96 | 0.978 | 0.844
9 | NCI-H647 | 0.513 | 0.577 | 0.345 | 0.209 | 0.0916 | 0.409 | 0.392 | 0.44 | 0.339 | 0.318 | 0.343 | 0.337 | 0.0924 | 0.0625 | 1.31 | 1.15 | 1.1 | 0.558
